The target of this test is T1, ICE (IL-1β converting enzyme), recombinant (Homo sapiens, UniProt P29466).
T1 construct: positions corresponding to molecular weights of 25,000 and 15,800; made in house; host or cells: Sf9 insect cells (baculovirus, pVL-ICE)
T1 sequence (P29466 120-297 limits assumed): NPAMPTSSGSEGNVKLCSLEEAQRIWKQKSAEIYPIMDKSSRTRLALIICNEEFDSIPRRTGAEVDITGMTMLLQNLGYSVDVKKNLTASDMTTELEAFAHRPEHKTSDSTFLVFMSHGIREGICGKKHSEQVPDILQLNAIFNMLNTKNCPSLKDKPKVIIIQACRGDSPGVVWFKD
T1 sequence (P29466 317-404 limits assumed): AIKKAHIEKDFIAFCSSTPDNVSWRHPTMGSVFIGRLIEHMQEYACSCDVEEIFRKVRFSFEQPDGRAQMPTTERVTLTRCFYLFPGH
Kind of test: Determination of ICE-inhibiting activity (fluorogenic substrate Ac-Y-V-A-D-MCA). Format: biochemical. The settings on record: recombinant ICE enzyme solution, 37° C. for 20 minutes, read-out: ICE-inhibiting activity in terms of IC50 value. The method, then: Two ml of the ICE expression recombinant virus suspension as prepared in Reference Example 5 was added to the insect cell Sf9 cultured in 2 1 of Sf900 medium containing 5% fetal calf serum (FCS) (1.5×10^6 cells/ml) to cause infection. Post-infection cultivation was conducted at 27° C. in a spinner flask for 4 days. Cultured cells were recovered (hereinafter all operations conducted on ice), washed 3 times with PBS (-), and suspended in a hypotonic buffer (20 mM KCl, 25 mM HEPES, pH 7.4, 5 MM MgCl2, 1 MM EDTA, 1 MM PMSF, 10 μg/ml pepstatin and leupeptine) to 10^8 cells/ml. After the suspension was kept standing on ice for 20 minutes, cells were disrupted (25 times) using a Dounce homogenizer. Disrupted cells were removed via centrifugation; ammonium sulfate was added to the supernatant to 40% saturation; the precipitate fraction was removed via centrifugation. Ammonium sulfate was further added to 80% saturation; the precipitate was recovered. The precipitate was dissolved in buffer A (20 mM KCl, 25 mM HEPES, pH 7.4, 5 mM EDTA, 2 mM DTT, 1 mM PMSF, 0.1% NP-40, 10% glycerol) and dialyzed against buffer A overnight. […]
After completion of the reaction, the fluorescence intensity of free aminomethylcoumarin was determined at a wavelength of 450 nm via excitation at a wavelength of 365 nm, using a fluorometer FCA (produced by Baxter). […]

Where a SMILES comes first, the peptide text is derived from it. [ ]: non-standard residue; d: D form. The star is where a group is joined. Fmoc = O=C(OCC1c2ccccc2-c2ccccc21)*; Aib = CC(C)(N)C(=O)O

Broadly, the IC50 is the concentration needed to halve the response being measured. In the case of `CC(C)[C@H](NC(=O)OCC1c2ccccc2-c2ccccc21)C(=O)NC(C)(C)C(=O)N[C@H](C=O)CC(=O)O` [Example 60, Fmoc-Val-Aib-NH--CH(CHO)CH2 COOH] (Fmoc-Val-[Aib]-Asp-aldehyde), the IC50 was 19 nM.
